Measured values as given in patent US20260015350A1, “AZAQUINAZOLINE PAN-KRAS INHIBITORS” (Mirati Therapeutics, Inc., priority 2022, published 2026).

Assays:
[1] = target: T1, KRas^WT (Homo sapiens, UniProt P01116); test: KRas binding assay (TR-FRET tracer displacement), KRas WT; settings: for inhibition at 0.01 µM: single point, 10 nM compound, TR-FRET; for IC50: TR-FRET tracer displacement, KRas WT
T1 construct: Biotinylated KRas (corresponding to amino acids 1-169, produced at Accelegan Inc.); biotin (biotinylated); purchased Accelegan Inc

[2] = target: T2, KRas^G12A (Homo sapiens, UniProt P01116, G12A); test: KRas binding assay (TR-FRET tracer displacement), KRas G12A; settings: for inhibition at 0.01 µM: single point, 10 nM compound, TR-FRET; for IC50: TR-FRET tracer displacement, KRas G12A
T2 construct: Biotinylated KRas (corresponding to amino acids 1-169, produced at Accelegan Inc.); biotin (biotinylated); purchased Accelegan Inc

[3] = target: T3, KRas^G12C (Homo sapiens, UniProt P01116, G12C); test: KRas binding assay (TR-FRET tracer displacement), KRas G12C; settings: for inhibition at 0.01 µM: single point, 10 nM compound, TR-FRET; for IC50: TR-FRET tracer displacement, KRas G12C
T3 construct: Biotinylated KRas (corresponding to amino acids 1-169, produced at Accelegan Inc.); biotin (biotinylated); purchased Accelegan Inc

[4] = target: T4, KRas^G12D (Homo sapiens, UniProt P01116, G12D); test: KRas binding assay (TR-FRET tracer displacement), KRas G12D
T4 construct: Biotinylated KRas (corresponding to amino acids 1-169, produced at Accelegan Inc.); biotin (biotinylated); purchased Accelegan Inc

[5] = target: T5, KRas^G12R (Homo sapiens, UniProt P01116, G12R); test: KRas binding assay (TR-FRET tracer displacement), KRas G12R
T5 construct: Biotinylated KRas (corresponding to amino acids 1-169, produced at Accelegan Inc.); biotin (biotinylated); purchased Accelegan Inc

[6] = target: T6, KRas^G12S (Homo sapiens, UniProt P01116, G12S); test: KRas binding assay (TR-FRET tracer displacement), KRas G12S; settings: for inhibition at 0.01 µM: single point, 10 nM compound, TR-FRET; for IC50: TR-FRET tracer displacement, KRas G12S
T6 construct: Biotinylated KRas (corresponding to amino acids 1-169, produced at Accelegan Inc.); biotin (biotinylated); purchased Accelegan Inc

[7] = target: T7, KRas^G12V (Homo sapiens, UniProt P01116, G12V); test: KRas binding assay (TR-FRET tracer displacement), KRas G12V
T7 construct: Biotinylated KRas (corresponding to amino acids 1-169, produced at Accelegan Inc.); biotin (biotinylated); purchased Accelegan Inc

[8] = target: T8, KRas^G13D (Homo sapiens, UniProt P01116, G13D); test: KRas binding assay (TR-FRET tracer displacement), KRas G13D; settings: for inhibition at 0.01 µM: single point, 10 nM compound, TR-FRET; for IC50: TR-FRET tracer displacement, KRas G13D
T8 construct: Biotinylated KRas (corresponding to amino acids 1-169, produced at Accelegan Inc.); biotin (biotinylated); purchased Accelegan Inc

[9] = target: T9, KRas^Q61H (Homo sapiens, UniProt P01116, Q61H); test: KRas binding assay (TR-FRET tracer displacement), KRas Q61H; settings: for inhibition at 0.01 µM: single point, 10 nM compound, TR-FRET; for IC50: TR-FRET tracer displacement, KRas Q61H
T9 construct: Biotinylated KRas (corresponding to amino acids 1-169, produced at Accelegan Inc.); biotin (biotinylated); purchased Accelegan Inc

[10] = test system: KRas-mediated phosphorylation of ERK in MKN1 cells; test: Inhibition of KRas-mediated phosphorylation of ERK (Cisbio HTRF pERK), MKN1 cells; assay type: cell-based; settings: Homo sapiens, MKN-1
Outline: (§1)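 Day 1 seeding: 6,000 cells per well, RPMI/10% FBS, left overnight at 37° C. with 5% CO2. Plates then stood covered for 4 h at room temperature prior to HTRF detection of pERK.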

[11] = test system: KRas-mediated phosphorylation of ERK in PSN1 cells; test: Inhibition of KRas-mediated phosphorylation of ERK (Cisbio HTRF pERK), PSN1 cells; assay type: cell-based; settings: Homo sapiens
Outline: as §1

[12] = test system: KRas-mediated phosphorylation of ERK in AsPC-1 cells; test: Inhibition of KRas-mediated phosphorylation of ERK (Cisbio HTRF pERK), AsPC-1 cells; assay type: cell-based; settings: Homo sapiens, ASPC1, AsPC-1 cells; HTRF pERK
Outline: (§2)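 6,000 cells/well; cpd 10 uM top, 3-fold x10, 0.8% DMSO final; 3 hr incubation; Min ctrl Trametinib 0.2 uM; lysis 40 min 4° C shaking; d2 + Cryptate Ab mix, 2 hr RT; HTRF read.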

[13] = test system: KRas-mediated phosphorylation of ERK in H727 cells; test: Inhibition of KRas-mediated phosphorylation of ERK (Cisbio HTRF pERK), H727 cells; assay type: cell-based; settings: Homo sapiens, NCI-H727, H727 cells; HTRF pERK
Outline: as §2

[14] = test system: KRas-mediated phosphorylation of ERK in A549 cells; test: Inhibition of KRas-mediated phosphorylation of ERK (Cisbio HTRF pERK), A549 cells; assay type: cell-based; settings: Homo sapiens; for inhibition at 0.1 µM: A549, 3 h, single point, 100 nM compound, 3 hrs; for IC50: HTRF pERK
Outline: (§3)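 Phosphorylated ERK was quantified by HTRF using d2-conjugate and Cryptate antibodies added to lysates for 2 hrs at room temperature.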

[15] = test system: KRas-mediated phosphorylation of ERK in H460 cells; test: Inhibition of KRas-mediated phosphorylation of ERK (Cisbio HTRF pERK), H460 cells; assay type: cell-based; settings: Homo sapiens; for inhibition at 0.1 µM: NCI-H460, 3 h, single point, 100 nM compound, 3 hrs; for IC50: NCI-H460, HTRF pERK
Outline: as §2

[16] = test system: KRas-mediated phosphorylation of ERK in HCT116 cells; test: Inhibition of KRas-mediated phosphorylation of ERK (Cisbio HTRF pERK), HCT116 cells; assay type: cell-based; settings: Homo sapiens; for inhibition at 0.1 µM: HCT-116, 3 h, single point, 100 nM compound, 3 hrs; for IC50: HCT-116, HTRF pERK
Outline: as §3

[17] = test system: KRas-mediated phosphorylation of ERK in H358 cells; test: Inhibition of KRas-mediated phosphorylation of ERK (Cisbio HTRF pERK), H358 cells; assay type: cell-based; settings: Homo sapiens; for inhibition at 0.1 µM: NCI-H358, 3 h, single point, 100 nM compound, 3 hrs; for IC50: NCI-H358, HTRF pERK
Outline: as §2

T3 sequence (P01116 1-169 isoform P01116-2 G12C): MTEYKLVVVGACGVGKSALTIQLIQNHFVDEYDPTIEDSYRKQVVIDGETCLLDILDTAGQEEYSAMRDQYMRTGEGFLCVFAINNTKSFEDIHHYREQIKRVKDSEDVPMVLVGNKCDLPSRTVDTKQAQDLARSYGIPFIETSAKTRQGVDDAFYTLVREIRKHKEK
T4 sequence (P01116 1-169 isoform P01116-2 G12D): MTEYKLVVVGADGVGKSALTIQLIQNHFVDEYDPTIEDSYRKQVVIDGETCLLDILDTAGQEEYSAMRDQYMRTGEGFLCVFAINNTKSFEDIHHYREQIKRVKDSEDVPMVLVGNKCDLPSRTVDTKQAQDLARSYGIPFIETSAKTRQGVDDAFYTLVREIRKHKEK
T8 sequence (P01116 1-169 isoform P01116-2 G13D): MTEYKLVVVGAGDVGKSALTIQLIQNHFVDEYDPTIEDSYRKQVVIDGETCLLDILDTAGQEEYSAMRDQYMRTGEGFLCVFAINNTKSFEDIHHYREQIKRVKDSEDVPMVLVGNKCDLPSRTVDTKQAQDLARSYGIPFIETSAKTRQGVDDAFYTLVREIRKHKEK
T9 sequence (P01116 1-169 isoform P01116-2 Q61H): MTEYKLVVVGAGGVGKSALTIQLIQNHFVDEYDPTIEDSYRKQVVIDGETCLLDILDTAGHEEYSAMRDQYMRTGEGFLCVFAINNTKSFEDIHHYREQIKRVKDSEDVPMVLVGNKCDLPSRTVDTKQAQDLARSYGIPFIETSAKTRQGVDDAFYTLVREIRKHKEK
T6 sequence (P01116 1-169 isoform P01116-2 G12S): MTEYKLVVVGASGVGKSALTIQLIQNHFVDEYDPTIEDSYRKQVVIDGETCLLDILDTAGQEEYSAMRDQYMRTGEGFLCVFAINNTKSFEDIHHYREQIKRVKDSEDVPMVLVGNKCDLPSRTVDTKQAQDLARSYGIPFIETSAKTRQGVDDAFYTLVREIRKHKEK
T7 sequence (P01116 1-169 isoform P01116-2 G12V): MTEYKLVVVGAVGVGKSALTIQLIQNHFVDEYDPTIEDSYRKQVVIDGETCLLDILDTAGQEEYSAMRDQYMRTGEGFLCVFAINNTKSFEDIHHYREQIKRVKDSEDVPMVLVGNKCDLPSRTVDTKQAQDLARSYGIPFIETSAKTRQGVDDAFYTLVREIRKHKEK
T2 sequence (P01116 1-169 isoform P01116-2 G12A): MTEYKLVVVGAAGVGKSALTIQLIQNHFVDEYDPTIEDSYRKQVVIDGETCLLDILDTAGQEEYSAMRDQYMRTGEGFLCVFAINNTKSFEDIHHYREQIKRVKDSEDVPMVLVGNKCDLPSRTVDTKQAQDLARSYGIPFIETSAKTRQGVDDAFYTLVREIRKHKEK
T5 sequence (P01116 1-169 isoform P01116-2 G12R): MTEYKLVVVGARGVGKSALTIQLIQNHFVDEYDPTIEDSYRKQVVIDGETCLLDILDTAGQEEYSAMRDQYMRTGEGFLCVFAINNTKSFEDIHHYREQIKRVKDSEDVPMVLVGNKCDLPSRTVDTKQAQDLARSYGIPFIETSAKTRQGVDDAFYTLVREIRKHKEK
T1 sequence (P01116 1-169 isoform P01116-2): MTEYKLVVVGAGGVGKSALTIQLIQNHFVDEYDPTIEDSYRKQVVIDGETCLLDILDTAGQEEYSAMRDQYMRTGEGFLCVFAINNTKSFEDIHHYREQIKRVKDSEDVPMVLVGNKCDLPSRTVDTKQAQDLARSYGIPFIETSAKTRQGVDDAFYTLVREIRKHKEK

Row | Structure (SMILES) | inhibition at 0.01 µM [1] [%] | inhibition at 0.01 µM [2] [%] | inhibition at 0.01 µM [3] [%] | IC50 [4] [nM] | IC50 [5] [nM] | inhibition at 0.01 µM [6] [%] | IC50 [7] [nM] | inhibition at 0.01 µM [8] [%] | inhibition at 0.01 µM [9] [%] | IC50 [10] [nM] | IC50 [11] [nM] | IC50 [12] [nM] | IC50 [13] [nM] | inhibition at 0.1 µM [14] [%] | inhibition at 0.1 µM [15] [%] | inhibition at 0.1 µM [16] [%] | inhibition at 0.1 µM [17] [%] | IC50 [15] [nM] | IC50 [16] [nM] | IC50 [1] [nM] | also measured
1 | CCc1c(F)ccc2cc(O)cc(-c3ncc4c(N5CCCC6(C5)NC(=O)NC6=O)nc(OC[C@]56CCCN5[C@H](COC(=O)N(C)C)CC6)nc4c3F)c12 (stereo partly drawn) [Example 709, ((3S,7aR)-7a-(((4-(2,4-dioxo-1,3,7-triazaspiro[4.5]decan-7-yl)-7-(8-ethyl-7-fluoro-3-hydroxynaphthalen-1-yl)-8-fluoropyrido[4,3-d]pyrimidin-2-yl)oxy)methyl)hexahydro-1H-pyrrolizin-3-yl)methyl dimethylcarbamate] | 91 | 80 | 95 | < 2 | < 2 | 94 | < 2 | 97 | 99 | 3 | 253 | 63 | 53 | 62 | 88 | 65 | 101 | – | – | – | –
2 | CCc1c(F)ccc2cc(O)cc(-c3ncc4c(N5CCCn6nc(C(=O)N(C)C)cc6C5)nc(OC[C@]56CCCN5[C@H](COC(=O)N(C)C)CC6)nc4c3F)c12 [Example 714, ((3S,7aR)-7a-(((4-(2-(dimethylcarbamoyl)-7,8-dihydro-4H-pyrazolo[1,5-a][1,4]diazepin-5(6H)-yl)-7-(8-ethyl-7-fluoro-3-hydroxynaphthalen-1-yl)-8-fluoropyrido[4,3-d]pyrimidin-2-yl)oxy)methyl)hexahydro-1H-pyrrolizin-3-yl)methyl dimethylcarbamate] | 85 | 89 | 94 | < 2 | 2 | 95 | < 2 | 85 | 87 | 95 | > 10000 | 26 | 89 | 16 | – | – | 73 | 193 | 760 | – | –
3 | CCc1c(F)ccc2cc(O)cc(-c3ncc4c(N5CCCC6(CNS(=O)(=O)N6)C5)nc(OC[C@]56CCCN5[C@H](COC(=O)N(C)C)CC6)nc4c3F)c12 (stereo partly drawn) [Example 716, ((3S,7aR)-7a-(((4-(2,2-dioxido-2-thia-1,3,7-triazaspiro[4.5]decan-7-yl)-7-(8-ethyl-7-fluoro-3-hydroxynaphthalen-1-yl)-8-fluoropyrido[4,3-d]pyrimidin-2-yl)oxy)methyl)hexahydro-1H-pyrrolizin-3-yl)methyl dimethylcarbamate] | 93 | 83 | 97 | < 2 | < 2 | 95 | < 2 | 98 | 98 | 9 | 1020 | 39 | 273 | 37 | 56 | 34 | 71 | – | – | – | –
4 | Oc1cc(-c2ncc3c(N4C[C@@H]5C[C@H](C4)[C@H](O)C5)nc(OC[C@@]45CCCN4C[C@H](F)C5)nc3c2F)c2ccccc2c1 [Example 737, (1R,5R,6R)-3-(8-fluoro-2-(((2R,7aS)-2-fluorohexahydro-1H-pyrrolizin-7a-yl)methoxy)-7-(3-hydroxynaphthalen-1-yl)pyrido[4,3-d]pyrimidin-4-yl)-3-azabicyclo[3.2.1]octan-6-ol] | 44 | 47 | 53 | 13 | 7 | 60 | 5 | 53 | 46 | 9 | 7190 | 420 | 79 | 17 | 27 | 39 | 8 | – | – | 13 | IC50 [2]: 10 nM; IC50 [3]: 10 nM; IC50 [6]: 8 nM; IC50 [8]: 12 nM; IC50 [9]: 14 nM
5 | O=S1(=O)NCC2(CCCN(c3nc(OCC45CCCN4CCC5)nc4c(F)c(-c5cc(O)cc(Cl)c5C5CC5)ncc34)C2)N1 (centres unmarked) [Example 745, 7-(7-(3-chloro-2-cyclopropyl-5-hydroxyphenyl)-8-fluoro-2-((hexahydro-1H-pyrrolizin-7a-yl)methoxy)pyrido[4,3-d]pyrimidin-4-yl)-2-thia-1,3,7-triazaspiro[4.5]decane 2,2-dioxide] | – | – | – | < 2 | < 2 | – | < 2 | – | – | 511 | 4280 | 867 | 701 | – | – | – | – | 516 | 1710 | 4 | IC50 [2]: < 2 nM; IC50 [3]: 3 nM; IC50 [6]: 5 nM; IC50 [8]: 3 nM; IC50 [9]: < 2 nM; IC50 [14]: 815 nM; IC50 [17]: 185 nM
6 | O=S1(=O)NCC2(CCCN(c3nc(OC[C@@]45CCCN4C[C@H](F)C5)nc4c(F)c(-c5c6ccccc6cc6[nH]ncc56)ncc34)C2)N1 (stereo partly drawn) [Example 762, 7-(7-(1H-benzo[f]indazol-4-yl)-8-fluoro-2-(((2R,7aS)-2-fluorohexahydro-1H-pyrrolizin-7a-yl)methoxy)pyrido[4,3-d]pyrimidin-4-yl)-2-thia-1,3,7-triazaspiro[4.5]decane 2,2-dioxide] | – | – | – | 2 | < 2 | – | < 2 | – | – | 139 | 2550 | 704 | 220 | – | 22 | 36 | – | 327 | 134 | < 2 | IC50 [2]: < 2 nM; IC50 [3]: < 2 nM; IC50 [6]: < 2 nM; IC50 [8]: < 2 nM; IC50 [9]: < 2 nM; IC50 [14]: 234 nM; IC50 [17]: 40 nM
